Measurements: patent US20240208901A1, “Deuterated 3,3'-Diselenodipropionic Acid (DSePA) and Its Use as an Anticancer or Radioprotective Agent” (Secretary, Department of Atomic Energy, priority 2022, published 2024)

Tests used:
H1975 cells = assay: MTT assay, anti-proliferative effect in H1975 cells; type: cell-based, human; conditions: Homo sapiens, NCI-H1975, 48 h treatment, read-out: IC50 to inhibit cell proliferation
Method: (§1) Therefore, D-DSePA was compared with un-deuterated DSePA for its anticancer activity in A549, H1975 and H3122 cell lines which are representative of NSCLC. For this, above cells were treated with the varying concentrations (0.1-100 μM) of DSePA/D-DSePA for 48 h and the cell viability was determined by MTT assay (FIG. 9A-C). The plot of percent (%) cytotoxicity (100-% viability) versus the concentration of DSePA/D-DSePA was used to estimate the half maximum concentration (IC50) of above compounds to inhibit the proliferation of cells. […] Employing these values, the therapeutic index (IC50 in normal lung cell/IC50 in lung cancer cell) of DSePA and D-DSePA in different pairs of normal versus cancerous cells (viz., A549/WI-38, A549/WI-26 VA4, H1975/WI-38, H1975/WI-26 VA4, H3122/WI-38 and H3122/WI-26 VA4) was calculated (Table-3). […]
(§2) MTT Assay—To evaluate the anti-proliferative effect of D-DScPA and DScPA, Cells (˜5×10^3) suspended in 100 μl of complete culture medium were seeded in each well of 96 well plates. […] The percentage (%) cytotoxicity was calculated from the decrease in absorbance at 570 nm of treated groups as compared to that of control group. […] The therapeutic index was calculated by normalizing the IC50 concentration of D-DSePA/DSePA in non-cancerous cells to that in cancerous cells.

A549 cells = assay: MTT assay, anti-proliferative effect in A549 cells; type: cell-based, human; conditions: Homo sapiens, 48 h treatment, read-out: IC50 to inhibit cell proliferation
Method: as §1, §2

O=C(O)CC[Se][Se]CCC(=O)O [DSePA, 3,3′-diselenodipropionic acid] gave an IC50 (H1975 cells) of 10.6 ± 1.1 µM and an IC50 (A549 cells) of 15.2 ± 1 µM.
